Experimental data taken from patent US20100256145A1, “USE OF KCNQ POTASSIUM CHANNEL OPENERS FOR REDUCING SYMPTOMS OF OR TREATING DISORDERS OR CONDITIONS WHEREIN THE DOPAMINERGIC SYSTEM IS DISRUPTED” (H. LUNDBECK A/S, priority 2007, published 2010).
Marks after values point to notes of the source that are not given here.

Columns and labels:
[1] = test system: conditioned avoidance response; assay: Conditioned avoidance response in rats; type: in vivo, rat; details: Rattus norvegicus, sc, rats, read-out: % inhibition of avoidance (Std. dev.) Relative to baseline; for inhibition at 2.5 mg/kg: 2.5 mg/kg s.c. 30 min before the test; for inhibition at 5 mg/kg: 5 mg/kg s.c. 30 min before the test
Procedure: Subjects. Male Wistar rats (Taconic, Denmark) weighing 150 g at the beginning of the study are used. The rats are housed in pairs and maintained on a 12 h light/dark cycle (lights on 06:00). The animals are fed once daily (approx. 6 pellets/rat) in order to keep the rats at 80% of their free-feeding weight. Water is available ad libitum. Temperature (21±1° C.) and relative humidity (55±5%) are automatically controlled.
Experimental procedure. Conditioned avoidance testing is conducted using four automated shuttle-boxes (ENV-010M, MED-Associates) each placed in a sound-attenuated chamber. Each box is divided into two compartments by a partition with an opening. The position of the animal and crossings from one compartment to the other are detected by two photocells placed on either side of the dividing wall. Upon presentation of the conditioned stimuli (CS), tone and light, the animals have 10s to cross to the other compartment of the shuttle-box in order to turn the CS off (end the trial) and avoid the appearance of the unconditioned stimulus (UCS). If the rat remains in the same compartment for more than 10s, the UCS is presented as 0.5 mA scrambled foot-shocks until escape is performed or 10s in maximal duration. The following behavioural variables are evaluated: avoidance (response to CS within 10s); escape (reponse to CS+UCS); escape failures (failure to respond); intertrial crosses and locomotor activity. The rats are habituated to the shuttle-box 3 min before each test session. During training each test session consists of 30 trials with intertrial intervals varying randomly between 20s and 30s. Training is carried out until the rats display an avoidance of 80% or more, on 3 consecutive days. A test is preceded by a pre-test the day before giving rise to a baseline value for each animal, thus the animals serve as their own control. Seven to eight rats are used at each dose level. A parallel control group receiving the vehicle of the test compound is also included.
Administration of compound. […] All compounds are dissolved in a vehicle of 10% 2-hydroxy-propyl-beta-cyclodextrin (isotonic with glucose, pH 5-7).
Statistical analyses. The effects of compounds on avoidance and escape failure behaviours are statistically evaluated by means of two-way repeated measures ANOVA followed by post hoc comparisons (Student-Newman-Keuls Method) when appropriate. P-levels <0.05 are considered statistically significant.

[2] = test system: extracellular DA levels in the nucleus accumbens; assay: Microdialysis: amphetamine-evoked DA levels in the nucleus accumbens of freely moving rats; type: in vivo, rat; details: for Normalised DA level in the nucleus accumbens: compound 5 mg/kg s.c., D-amphetamine 0.5 mg/kg s.c. 30 min later; for Effect on the basal extracellular DA level in the nucleus accumbens: without amphetamine, data not shown
Procedure: Subjects. Male Sprague-Dawley rats (Charles River), initially weighing 275-300 g, are used.
Surgery. Animals are anaesthetized with hypnorm/dormicum (2 ml/kg s.c.) and intracerebral guide cannulas (CMA/12) are stereotaxically implanted, positioning the dialysis probe tip in the nucleus accumbens (co-ordinates: 1.7 mm anterior to bregma, −1.2 mm lateral to bregma, 8.0 mm ventral to the dura). Anchor screws and acrylic cement is applied for fixation of the guide cannula. The body temperature of the animals is maintained at 37° C. by means of a rectal probe and a heating plate. The rats are allowed to recover from surgery for 2 days, housed singly in cages.
Experimental procedure. On the day of the experiment, a microdialysis probe (CMA/12, 0.5 mm diameter, 2 mm length) is inserted through the guide cannula of the conscious animal. The probes are connected to a microinjection pump via a dual channel swivel which allowed the animals unrestricted movements. Perfusion of the microdialysis probe with filtered Ringer solution (145 mM NaCl, 3 mM KCl, 1 mM MgCl2, 1.2 mM CaCl2) is maintained for the duration of the experiment at a constant flow rate of 1 μL/min. After 180 min of stabilisation, the experiments are initiated. Dialysates are collected every 20 min. After the experiments the rats are sacrificed by decapitation, their brains removed, frozen and sliced for probe placement verification.
Administration of compounds. […] Thirty minutes later, D-amphetamine sulphate (0.5 mg/kg s.c.) is administered.
Analysis of dialysate. The concentration of DA in the dialysates is assessed by means of HPLC with electrochemical detection. The dialysate constituents are separated by reverse phase liquid chromatography (ODS 150×3 mm, […]). Mobile phase consists of 90 mM NaH2PO4, 50 mM sodium citrate, 367 mg/l sodium 1-octanesulfonic acid, 50 μM EDTA and 8% acetonitrile (pH 4.0) at a flow rate of 0.5 ml/min. Electrochemical detection of DA is accomplished using a coulometric detector; potential set at E1=−75 mV and E2=300 mV (guard cell at 350 mV) (Coulochem II, ESA). The dialysate levels of DA in the three dialyse samples preceding the administration of compound are averaged and used as baseline level of DA (100%)
Statistical analysis. The dialysate levels of DA in the three dialyse samples preceding the administration of compound are averaged and used as baseline level of DA (100%). Data are analysed using repeated measure analyses of variance followed by post hoc tests (Tukey test), when appropriate. *P<0.05 were considered significant.

[3] = test system: immobility in the mouse forced swim test; assay: Mouse forced swim test; type: in vivo; details: mice, time immobile during last 3 min of 6 min swim, vehicle = 100
Procedure: Subjects. Male NMRI mice (Charles River) weighing 23-25 g are used. […] 8 mice are used pr experimental group.
Experimental procedure. The mice are placed in 2000 ml beaker containing 1200 ml of tempered water (25° C.) and left to swim for 6 min. The performance of the mice is videorecorded, digitalized and analysed by means of a digital analysis system (Bioobserve). The time spent immobile for the last 3 min. of the test session is quantified for each mouse.
Analyses. […] A post-hoc test (Student-Newman-Keuls) is employed when appropriate. P-levels <0.05 were considered significant.

[4] = test system: dopaminergic neurons in the ventral tegmental area; assay: Spontaneous DA cell firing in the VTA of anaesthetised rats (extracellular single-cell recordings); details: mean ± SEM
Procedure: Subjects. Male Wistar rats (Harlan, The Netherlands) weighing 270-340 g are used. The animals are housed under a 12-hr light/dark cycle under controlled conditions for regular in-door temperature (21±2° C.) and humidity (55±5%) with food and tap water available ad libitum.
Administration of compound. […] These i.v. doses match the s.c. dose range of 0-10 mg/kg.
Statistical analysis. Drug effects are assessed by statistical comparison of the mean firing rate calculated from the 2-3 min period immediately before the first drug administration (baseline) to the mean firing rate calculated from at least 60 s at the maximal drug effect. Data are analysed statistically by a one-way analysis of variance (ANOVA) followed by Student-Newman-Keuls post hoc test. A p-value less than 0.05 is considered significant.

[5] = test system: d-amphetamine induced hyperactivity in rats; assay: Amphetamine-induced hyperactivity in the rat (amphetamine antagonism); type: in vivo; details: read-out: Amphetamine antagonism ED50 (mg/kg) ± std. dev.
Text: Subjects. Male Wistar rats (Taconic, Denmark) weighing 170-240 g are used. […] Eight rats are used at each dose level and in the parallel control group receiving the vehicle to the test compound plus d-amphetamine and the group receiving vehicle injections only.

[6] = 2.5 mg/kg s.c. 30 min before test
[7] = 5.0 mg/kg s.c. 30 min before test

SMILES	inhibition at 2.5 mg/kg [1] [%]	inhibition at 5 mg/kg [1] [%]	Normalised DA level in the nucleus accumbens ([2]; Time 0 min (baseline sample))	Normalised DA level in the nucleus accumbens ([2]; Time 20 min)	Normalised DA level in the nucleus accumbens ([2]; Time 40 min)	Normalised DA level in the nucleus accumbens ([2]; Time 60 min)	Normalised DA level in the nucleus accumbens ([2]; Time 80 min)	Normalised DA level in the nucleus accumbens ([2]; Time 100 min)	Normalised DA level in the nucleus accumbens ([2]; Time 120 min)	Normalised DA level in the nucleus accumbens ([2]; Time 140 min)	Normalised DA level in the nucleus accumbens ([2]; Time −20 min (baseline sample))	Normalised DA level in the nucleus accumbens ([2]; Time −40 min (baseline sample))	Effect on the basal extracellular DA level in the nucleus accumbens [2]	Immobility in % (±S.D.) ([3]; 1.3 mg/kg)	Immobility in % (±S.D.) [3, 6]	Immobility in % (±S.D.) [3, 7]	Spontaneous DA cell firing rate in the VTA ([4]; cumulated dose 0.03 mg/kg i.v.)	Spontaneous DA cell firing rate in the VTA ([4]; cumulated dose 0.1 mg/kg i.v.)	also measured
Cc1cc(N2CCOCC2)cc(C)c1NC(=O)CC1CCCC1	5	65	99 ± 4 % of baseline	125 ± 9 % of baseline	264 ± 39 % of baseline	265 ± 17* % of baseline	231 ± 22 % of baseline	167 ± 25 % of baseline	109 ± 11 % of baseline	93 ± 15 % of baseline	106 ± 5 % of baseline	95 ± 6 % of baseline	None of the latter three compounds significantly affects the basal extracellular DA level	97.5 (6.3) %	97 (6.7) %	81.0 (18)* %	95.1 ± 1.9 (4) percentage of baseline firing rate	88.2 ± 2.8 (5) percentage of baseline firing rate	Spontaneous DA cell firing rate in the VTA ([4]; cumulated dose 0.3 mg/kg i.v.): 74.6 ± 3.6 (4) percentage of baseline firing rate; Spontaneous DA cell firing rate in the VTA ([4]; cumulated dose 0.6 mg/kg i.v.): 64.1 ± 7.1 (2) percentage of baseline firing rate; Spontaneous DA cell firing rate in the VTA ([4]; cumulated dose 0.9 mg/kg i.v.): 55.8 ± 6.5 (2) percentage of baseline firing rate
Cc1cc(N2CCOCC2)cc(C)c1NC(=O)CC(C)(C)C	1	71	91 ± 4 % of baseline	112 ± 12 % of baseline	227 ± 46 % of baseline	262 ± 53* % of baseline	195 ± 38* % of baseline	172 ± 24 % of baseline	166 ± 32 % of baseline	129 ± 35 % of baseline	100 ± 3 % of baseline	108 ± 5 % of baseline	None of the latter three compounds significantly affects the basal extracellular DA level	102 (4.6) %	96.7 (7.5) %	82.3 (20)* %	89.8 ± 4.5 (5) percentage of baseline firing rate	81.0 ± 4.0 (5) percentage of baseline firing rate	Spontaneous DA cell firing rate in the VTA ([4]; cumulated dose 0.25 mg/kg i.v.): 74.1 ± 6.3 (4) percentage of baseline firing rate; Spontaneous DA cell firing rate in the VTA ([4]; cumulated dose 0.5 mg/kg i.v.): 68.1 ± 6.0 (4) percentage of baseline firing rate; Spontaneous DA cell firing rate in the VTA ([4]; cumulated dose 1.0 mg/kg i.v.): 57.1 ± 7.9 (3) percentage of baseline firing rate
Cc1cc2c(s1)Nc1ccccc1N=C2N1CCN(C)CC1 [Olanzapine, reference compound]														95 (11) %					ED50 [5]: 0.21 mg/kg; Immobility in % (±S.D.) ([3]; 0.31 mg/kg): 96 (14) %
